In patent US5362728A, “4,5-bridged-2,3,4,5-tetrahydro-1H-3-benzazepine-7-ols and derivatives and compositions and methods employing such compounds” (Schering Corporation, priority 1992, dated 1994):
Like-named read-outs stand apart in the source and are kept apart here.

Legend:
dopamine D-1 receptor = biological target: T1, dopamine D-1 receptor (Rattus norvegicus, UniProt P18901); assay: Competitive inhibition assay, 3H-SCH 23390 binding (D-1), rat striatal tissue; parameters: species or system rat (male Sprague-Dawley)
T1 construct: Striatal tissue is excised, pooled, and homogenized; from tissue; host or cells: rat striatum, washed membrane homogenate
T1 sequence (P18901 whole entry): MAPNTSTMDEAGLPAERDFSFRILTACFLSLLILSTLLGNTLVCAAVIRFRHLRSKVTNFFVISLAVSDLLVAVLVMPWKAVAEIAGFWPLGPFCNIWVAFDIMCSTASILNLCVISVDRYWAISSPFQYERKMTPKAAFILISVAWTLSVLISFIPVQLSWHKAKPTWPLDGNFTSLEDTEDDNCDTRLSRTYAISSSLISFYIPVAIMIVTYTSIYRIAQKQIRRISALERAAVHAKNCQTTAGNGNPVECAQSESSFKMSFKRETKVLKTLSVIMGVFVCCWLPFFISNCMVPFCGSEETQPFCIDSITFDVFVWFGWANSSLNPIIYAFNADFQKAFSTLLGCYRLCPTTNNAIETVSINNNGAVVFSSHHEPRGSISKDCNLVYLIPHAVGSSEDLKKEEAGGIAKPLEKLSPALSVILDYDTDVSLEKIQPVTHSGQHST
From the text: (§1) A methodology for characterization of D-1 and D-2 receptor binding and an interpretation of the data are described by Billard et al., Life Sciences 35, 1885 (1984) in which the binding of the benzazepine (R)-(+)-8-chloro-2,3,4,5-tetrahydro-3-methyl-5-phenyl-1H-3-benzazepin-7-olhemimaleate (SCH 23390) to the dopamine D-1 receptor is characterized. A selectivity for D-1 receptor binding as compared to D-2 receptor binding .is believed to confer the therapeutic advantage of avoiding troublesome and potentially irreversible neurological side effects associated with D-2 receptor occupancy.
(§2) Tritiated SCH 23390 and tritiated spiperone (a potent D-2 receptor ligand) are obtained as described in the Billard et al. reference supra and serially diluted in 0.05M Tris buffer, pH 7.4, as required. Compounds of this invention are synthesized as disclosed herein and diluted in 0.05M Tris buffer, pH 7.4, as required.
(§3) Male Sprague-Dawley rats (200 to 250 g) from Charles River Breeding Laboratories, Mass. are used to obtain brain tissue. The rats are humanely sacrificed and their brains removed and placed on ice. Striatal tissue is excised, pooled, and homogenized (Brinkman Polytron, 10 sec) in 100 volumes (w/v) of ice cold 50 mM Tds buffer, pH 7.4 (at 25° C.). The homogenate is centrifuged at 20,000 xg for 10 min. The resultant pellet is rehomogenized in Tris buffer and centrifuged again. The final pellet is resuspended in 50 mM Tris buffer pH 7.4 containing 120 mM NaCl, 5 mM KCl, 2 mM CaCl2, and 1 mM MgCl2.
(§4) Polypropylene incubation tubes receive 100 μl of the individual test compounds at vadous concentrations dissolved or suspended in 0.05M Tris, pH 7.4 containing 4 mg/ml methylcellulose, 100 μl of a solution of ^3 H-SCH 23390 in Tris buffer (final reaction mixture concentration=0.3 nM) or 100 μl of a solution of ^3 H-spiperone in Tris buffer (final concentration=0.2 nM) and 800 μl of tissue suspension (ca. 3 mg/assay). Tubes are incubated at 37° C. for 15 minutes and rapidly vacuum filtered through Whatman GF/B filters and rinsed 4 times with 4 ml of ice cold 50 mM Tds buffer, pH 7.4. The filters are transferred to scintillation vials, equilibated with 10 ml of scintillant (Scintosol, Isolab, Inc.) for 16 hours at 25° C. and the radioactivity determined in a liquid scintillation counter, Ki values are determined as described by Billard et al. using the relationship Kj = IC50 /(1+([L]/KD)) wherein IC50 =concentration of test drug necessary to displace 50% of specifically bound ^3 H-Sch 23390, [L]=concentration of radioligand used in the assay, and KD =dissociation constant.

squirrel monkey = assay: Squirrel monkey conditioned avoidance response (CAR) test; type: in vivo; conditions: Primates, po, read-out: CAR(MED) Sq. Monkey @ 1 hr
From the text: SQUIRREL MONKEY CONDITIONED AVOIDANCE RESPONSE (CAR) TEST
This test is designed to measure the potency of candidate compounds in a primate species.
Male or female squirrel monkeys weighing 800-1200 g housed one per cage are utilized. Initially each monkey is taught to terminate a 3 mA electric shock delivered through the grid floor of the test cage and an overlapping tone by depressing a lever in the cage.
In the second phase of the testing, a ten second tone is turned on prior to the shock component. A lever press during the sounding of the tone terminates the tone and prevents the occurrence of the shock component and is denoted as an "avoidance".
The compound testing is commenced after three consecutive days of re-testing. […] The monkey must achieve at least an 85% correct avoidance before drug testing commences. If this minimal avoidance level is achieved, the next day the monkey is orally dosed or injected with the subject compounds in the appropriate vehicle and the number of avoidances are recorded. An animal is defined as having been "affected" by any drug treatment if there is a 50% loss of avoidance behavior relative to the performance of the animal when only the vehicle is injected. The minimal effective dose (MED) is defined as that dose producing an effect in at least 50% of the animals.
A test may be conducted to determine the effective potency of a compound in accordance with the present invention by comparing a compound of the invention to a known compound, (R)-(+)-8-chloro-2,3,4,5-tetrahydro-3-methyl-5-phenyl-1H-3-benzazepin-7-olhemimaleate, denoted as Compound B (Sch 23390). A compound of the invention administered 60 minutes prior to the test is compared to compound B administered 30 minutes prior to test.

D-2 receptor = biological target: T2, D-2 receptor (Rattus norvegicus, UniProt P61169); assay: Competitive inhibition assay, 3H-spiperone binding (D-2), rat striatal tissue; parameters: species or system rat (male Sprague-Dawley)
T2 construct: Striatal tissue is excised, pooled, and homogenized; from tissue; host or cells: rat striatum, washed membrane homogenate
T2 sequence (P61169 whole entry): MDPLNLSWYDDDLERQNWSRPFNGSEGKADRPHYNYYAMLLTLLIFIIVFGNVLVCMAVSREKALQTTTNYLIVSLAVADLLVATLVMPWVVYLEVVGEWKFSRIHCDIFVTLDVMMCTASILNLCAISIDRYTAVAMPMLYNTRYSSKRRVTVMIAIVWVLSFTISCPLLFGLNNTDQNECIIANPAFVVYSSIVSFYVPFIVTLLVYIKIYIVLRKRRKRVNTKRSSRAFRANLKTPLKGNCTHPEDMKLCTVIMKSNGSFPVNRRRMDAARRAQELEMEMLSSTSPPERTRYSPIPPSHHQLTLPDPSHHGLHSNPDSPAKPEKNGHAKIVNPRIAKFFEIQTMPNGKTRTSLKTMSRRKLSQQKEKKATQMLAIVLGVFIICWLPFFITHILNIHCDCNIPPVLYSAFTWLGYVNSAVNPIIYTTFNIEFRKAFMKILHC
From the text: as §1, §2, §3, §4

[1] = Col. 7, 3H-SCH 23390 0.3 nM, rat striatum, 37° C., 15 min, pH 7.4, read-out: Ki (nM) 3H-Sch23390
[2] = Col. 9, p.o., 1 hr, minimal effective dose = dose producing an effect in at least 50% of the animals
[3] = Col. 8, 3H-spiperone 0.2 nM, rat striatum, 37° C., 15 min, pH 7.4, read-out: Ki (nM) 3H-Spip

Row | Compound | Ki (dopamine D-1 receptor; [1]) [nM] | minimal effective dose (squirrel monkey; [2]) [mg/kg] | Ki (D-2 receptor; [3]) [nM] | Ki (dopamine D-1 receptor) [nM] | minimal effective dose (squirrel monkey; 1 h) [mg/kg] | Ki (D-2 receptor) [nM]
1 | Cc1cc2c(cc1O)[C@@H]1CCCC[C@H]1N(C)CC2 (relative stereo) | 70 | > 10 | 71000 | – | – | –
2 | CCCCC(=O)Oc1cc2c(cc1Cl)CCN(C)C1CCCC21 (centres unmarked) | 24 | – | 177 | – | – | –
3 | Cc1ccc(NC(=O)Oc2cc3c(cc2Cl)CCN(C)[C@@H]2CCC[C@@H]32)c(C)c1 (relative stereo) | – | – | – | 7.7 | > 3 | 428
4 | C[C@H]1CC[C@@H]2[C@@H]1c1cc(O)c(Cl)cc1CCN2C (relative stereo) | 3 | > 10 | 350 | – | – | –
5 | Cc1cc2c(cc1O)[C@H]1[C@@H](CC[C@@H]1C)N(C)CC2 (relative stereo) | 14 | 3 | 840 | – | – | –
6 | CN1CCc2ccc(O)cc2[C@@H]2CCC[C@H]21 (relative stereo) | 335 | – | 2320 | – | – | –
7 | Oc1cc2c(cc1Cl)CCN[C@@H]1CCC[C@@H]21 (relative stereo) | 96 | – | 1300 | – | – | –
8 | CN1CCc2cc(Cl)c(O)cc2[C@@H]2CCC[C@H]21 (relative stereo) | 2.8 | > 10 | 380 | – | – | –
9 | C[C@H]1CC[C@@H]2[C@@H](C1)c1cc(O)c(Cl)cc1CCN2C (relative stereo) | 70 | > 10 | > 10000 | – | – | –
10 | CC(C)c1ccc(NC(=O)Oc2cc3c(cc2Cl)CCN(C)[C@@H]2CCC[C@@H]32)cc1 (relative stereo) | – | – | – | 5.4 | – | 430
